The experiment addresses human activated kallikrein enzyme (Homo sapiens, UniProt P03952). The experiment in a line: Inhibition of human activated plasma kallikrein, fluorogenic PFR-AMC substrate, 500 pM enzyme format. In kind it is biochemical. The following applies: 500 pM activated kallikrein; 300 μM PFR-AMC; 30 min preincubation; 10 min room temperature; pH 7.5; read-out: Primary Dose Response Assay: Average EC50. In short, it runs like this:
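Using fluorogenic PFR-AMC at 300 μM, cleavage by 500 pM human activated kallikrein ran 10 min at room temperature, read at 460 nm emission (380 nm excitation). Enzyme and compounds were first preincubated 30 min in 20 mM Tris pH 7.5, 150 mM NaCl, 1 mM EDTA, 0.1% PEG-400, 0.1% Triton X-100.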
human activated kallikrein enzyme, sequence (P03952 391-638 limits assumed): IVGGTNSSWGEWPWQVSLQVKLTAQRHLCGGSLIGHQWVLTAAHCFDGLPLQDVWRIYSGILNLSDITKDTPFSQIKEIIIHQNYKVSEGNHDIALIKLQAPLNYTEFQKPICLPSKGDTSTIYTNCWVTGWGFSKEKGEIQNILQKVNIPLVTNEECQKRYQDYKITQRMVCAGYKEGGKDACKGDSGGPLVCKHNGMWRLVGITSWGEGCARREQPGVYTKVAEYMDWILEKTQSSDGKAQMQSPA
human activated kallikrein enzyme, sequence (P03952 20-390 partner limits assumed): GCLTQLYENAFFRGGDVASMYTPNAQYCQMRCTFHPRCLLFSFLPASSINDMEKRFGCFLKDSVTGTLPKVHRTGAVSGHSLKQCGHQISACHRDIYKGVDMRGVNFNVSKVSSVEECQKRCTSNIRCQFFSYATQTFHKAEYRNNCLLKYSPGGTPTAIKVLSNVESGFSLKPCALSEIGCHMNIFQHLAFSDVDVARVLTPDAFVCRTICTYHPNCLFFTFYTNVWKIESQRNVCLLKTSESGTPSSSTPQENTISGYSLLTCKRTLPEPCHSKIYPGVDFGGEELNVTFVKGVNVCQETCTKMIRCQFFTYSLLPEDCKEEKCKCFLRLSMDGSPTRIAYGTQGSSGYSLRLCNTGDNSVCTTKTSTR
`CCc1cccc2nc(Cn3cc(C(=O)NCc4c(C)cc5c(N)nccc5c4C)cn3)cn12` [Example 140, N-((1-amino-5,7-dimethylisoquinolin-6-yl)methyl)-1-((5-ethylimidazo[1,2-a]pyridin-2-yl)methyl)-1H-pyrazole-4-carboxamide]: the EC50 was below 1 nM.

`Cc1cc2c(N)nccc2c(C)c1CNC(=O)c1cnn(Cc2ccc(CC(=O)N(C)Cc3ccccc3)cc2)c1` [Example 220, N-((1-amino-5,7-dimethylisoquinolin-6-yl)methyl)-1-(4-(2-(benzyl(methyl)amino)-2-oxoethyl)benzyl)-1H-pyrazole-4-carboxamide]: the EC50 is 1 to 10 nM.

For `Cc1cc2c(N)nccc2c(C)c1CNC(=O)c1cnn(Cc2ccc3nccnc3c2)c1` [Example 79, N-((1-amino-5,7-dimethylisoquinolin-6-yl)methyl)-1-(quinoxalin-6-ylmethyl)-1H-pyrazole-4-carboxamide], the EC50 was in the range of 1 to 10 nM.

With `Cc1cc2c(N)nccc2c(C)c1CNC(=O)c1cnn(Cc2nc3ccccc3n2C(C)C)c1` [Example 71, N-((1-amino-5,7-dimethylisoquinolin-6-yl)methyl)-1-((1-isopropyl-1H-benzo[d]imidazol-2-yl)methyl)-1H-pyrazole-4-carboxamide], the EC50 was in the range of 100 to 1000 nM.

Consider `Cc1cc2c(N)nccc2c(C)c1CNc1cc(OCc2ccc3ncc(Cl)cc3c2)cnn1` [Example 407, 6-(((5-((3-chloroquinolin-6-yl)methoxy)pyridazin-3-yl)amino)methyl)-5,7-dimethylisoquinolin-1-amine], for which the EC50 was below 1 nM.

Consider `Cc1ccc2nc(Cn3cc(C(=O)NCc4c(C)cc5c(NC(=O)OC(C)C)nccc5c4C)cn3)cn2c1` [Example 6, isopropyl (5,7-dimethyl-6-((1-((6-methylimidazo[1,2-a]pyridin-2-yl)methyl)-1H-pyrazole-4-carboxamido)methyl)isoquinolin-1-yl)carbamate], for which the EC50 lay within 10 to 100 nM.

Take `Cc1cc2c(N)nccc2c(C)c1CNC(=O)c1cnn(Cc2ccccc2F)c1` [Example 38, N-((1-amino-5,7-dimethylisoquinolin-6-yl)methyl)-1-(2-fluorobenzyl)-1H-pyrazole-4-carboxamide]: the EC50 is above 1000 nM.

`CCOC(=O)[C@@H]1[C@@H]2CN(C(=O)Cc3ccc(Cn4cc(C(=O)NCc5c(C)cc6c(N)nccc6c5C)cn4)cc3)C[C@@H]21` [Example 211, ethyl (1R,5S,6s)-3-(2-(4-((4-(((1-amino-5,7-dimethylisoquinolin-6-y1)methyl)carbamoyl)-1H-pyrazol-1-yl)methyl)phenyl)acetyl)-3-azabicyclo[3.1.0]hexane-6-carboxylate]: the EC50 was below 1 nM.

Regarding `Cc1cc2c(N)nccc2c(C)c1CNc1cc(OCc2cn3cc(C4CC4)cnc3n2)nc(CCC(=O)O)n1` [Example 294, 3-(4-(((1-amino-5,7-dimethylisoquinolin-6-yl)methyl)amino)-6-((6-cyclopropylimidazo[1,2-a]pyrimidin-2-yl)methoxy)pyrimidin-2-yl)propanoic acid], the EC50 was below 1 nM.

For `COc1c(F)cccc1Cc1ccc(Cn2cc(C(=O)NCc3c(C)cc4c(N)nccc4c3C)cn2)cc1` [Example 116, N-((1-amino-5,7-dimethylisoquinolin-6-yl)methyl)-1-(4-(3-fluoro-2-methoxybenzyl)benzyl)-1H-pyrazole-4-carboxamide], the EC50 was 1 to 10 nM.

Consider `Cc1cc2ccnc(NC(=O)OCc3ccccc3)c2c(C)c1CNc1cc(NCc2ccc(Cn3ccccc3=O)cc2)ncn1` [Example 248, benzyl (6,8-dimethyl-7-(((6-((4-((2-oxopyridin-1(2H)-yl)methyl)benzyl)amino)pyrimidin-4-yl)amino)methyl)isoquinolin-1-yl)carbamate], for which the EC50 was in the range of 1 to 10 nM.

Consider `Cc1cc2c(N)nccc2c(C)c1CNC(=O)c1cnn(Cc2ccc(CC(=O)N(C)C)cc2)c1` [Example 63, N-((1-amino-5,7-dimethylisoquinolin-6-yl)methyl)-1-(4-(2-(dimethylamino)-2-oxoethyl)benzyl)-1H-pyrazole-4-carboxamide], for which the EC50 is below 1 nM.

In the case of `Cc1cc2c(N)nccc2c(C)c1CNc1cc(NCc2ccc(OCC(=O)N(C)C)cc2)ncn1` [Example 377, 2-(4-(((6-(((1-amino-5,7-dimethylisoquinolin-6-yl)methyl)amino)pyrimidin-4-yl)amino)methyl)phenoxy)-N,N-dimethylacetamide], the EC50 was below 1 nM.

`Cc1cc2c(N)nccc2c(C)c1CNC(=O)c1cnn(Cc2nc3ccccc3o2)c1` [Example 85, N-((1-amino-5,7-dimethylisoquinolin-6-yl)methyl)-1-(benzo[d]oxazol-2-ylmethyl)-1H-pyrazole-4-carboxamide]: the EC50 was in the range of 10 to 100 nM.

On to `Cc1cc2c(N)nccc2c(C)c1CNc1cc(NCc2ccc(OCC(=O)N3CCCC3)cc2)ncn1` [Example 345, 2-(4-(((6-(((1-amino-5,7-dimethylisoquinolin-6-yl)methyl)amino)pyrimidin-4-yl)amino)methyl)phenoxy)-1-(pyrrolidin-1-yl)ethan-1-one], for which the EC50 was below 1 nM.

`Cc1cc2c(N)nccc2c(C)c1CNc1cc(OCc2cn3nc(C4CC4)ccc3n2)nc(C(F)(F)F)n1` [Example 389, 6-(((6-((6-cyclopropylimidazo[1,2-b]pyridazin-2-yl)methoxy)-2-(trifluoromethyl)pyrimidin-4-yl)amino)methyl)-5,7-dimethylisoquinolin-1-amine]: the EC50 lay within 10 to 100 nM.

Turning to `Cc1cc2c(N)nccc2c(C)c1CNc1cc(NCc2ccc(Cc3nccs3)cc2)ncn1` [Example 362, N^4-((1-amino-5,7-dimethylisoquinolin-6-yl)methyl)-N^6-(4-(thiazol-2-ylmethyl)benzyl)pyrimidine-4,6-diamine], the EC50 is below 1 nM.

On to `Cc1ccc2nc(Cn3cc(C(=O)NCc4c(C)cc5c(N)nccc5c4C)cn3)cn2c1` [Example 10, N-((1-amino-5,7-dimethylisoquinolin-6-yl)methyl)-1-((6-methylimidazo[1,2-a]pyridin-2-yl)methyl)-1H-pyrazole-4-carboxamide], for which the EC50 is below 1 nM.

Consider `Cc1ccc2nc(Cn3cc(C(=O)N(C)Cc4c(C)cc5c(N)nccc5c4C)cn3)cn2c1` [Example 128, N-((1-amino-5,7-dimethylisoquinolin-6-yl)methyl)-N-methyl-1-((6-methylimidazo[1,2-a]pyridin-2-yl)methyl)-1H-pyrazole-4-carboxamide], for which the EC50 is 10 to 100 nM.

On to `Cc1cc2c(N)nccc2c(C)c1CNc1cc2c(Cc3ccc4ccccc4c3)c[nH]c2cn1` [Example 526, 5,7-dimethyl-6-(((3-(naphthalen-2-ylmethyl)-1H-pyrrolo[2,3-c]pyridin-5-yl)amino)methyl)isoquinolin-1-amine], for which the EC50 was above 1000 nM.

Regarding `Cc1nnc(Cc2ccc(CNc3cc(NCc4c(C)cc5c(N)nccc5c4C)ncn3)cc2)s1` [Example 343, N^4-((1-amino-5,7-dimethylisoquinolin-6-yl)methyl)-N^6-(4-((5-methyl-1,3,4-thiadiazol-2-yl)methyl)benzyl)pyrimidine-4,6-diamine], the EC50 was above 1000 nM.

As to `Cc1cc2c(N)nccc2c(C)c1CNC(=O)c1cnn(Cc2ccc(C3(C(=O)N4CCCC4)CC3)cc2)c1` [Example 122, N-((1-amino-5,7-dimethylisoquinolin-6-yl)methyl)-1-(4-(1-(pyrrolidine-1-carbonyl)cyclopropyl)benzyl)-1H-pyrazole-4-carboxamide], the EC50 is below 1 nM.

The term EC50 denotes the concentration giving half of the maximal effect.

These data come from US20260374754A1, “N-((ISOQUINOLIN-6-YL)METHYL)-1H-PYRAZOLE-4-CARBOXAMIDE DERIVATIVES AS PLASMA KALLIKREIN INHIBITORS FOR THE TREATMENT OF HEREDITARY ANGIODEMA” (Takeda Pharmaceutical Company Limited, priority 2022, published 2026).
